In the NIST ThermoML archive (doi:10.1016/j.fluid.2012.07.027):

Details: Liquid, Ebulliometric method (Recirculating still)

CCCCCOCCOCCOCCCCC [1-(2-(2-(pentyloxy)ethoxy)ethoxy)pentane]
Details	vapor or sublimation pressure [kPa]
427.5 K	2
437.5 K	3
444.6 K	4
450.3 K	5
455.1 K	6
459.3 K	7
461.2 K	7.5
463 K	8
466.2 K	9
469.1 K	10
471.7 K	11
474.1 K	12
476.3 K	13
478.6 K	14
480.7 K	15
488.8 K	20
495.7 K	25
